From US20260294863A1, “METHOD OF TREATING FIBROTIC-RELATED CONDITION” (YISSUM RESEARCH DEVELOPMENT COMPANY OF THE HEBREW …, priority 2023, published 2026)

Experiments:
[1] = tested on: TGFβ; assay: Cells containing TGFβ in the lung, bleomycin-induced lung fibrosis; format: in vivo, C57BL/6JOlaHsd mice; settings: ladostigil + bleomycin; p<0.05
Method: The animal model of bleomycin-induced lung fibrosis is widely used to characterize the potential inhibitory effect of newly developed drugs (Distler et al. 2019). Experiments were performed in C57BL/6JOlaHsd male and female mice aged 12-13 weeks. Male mice weighed 23-27.3 g and female mice, 19.4-21.1 g. They were housed under pathogen-free conditions, up to 6 per cage, in IVC cages under a controlled temperature of 22-24° C., humidity and alternating 12-h light/dark cycles and provided with food and water ad libitum. […] TNFα and IL-6 in the bronchial fluid lavage was measured by ELISA as described in the preceding section.
Specimens taken from the left lung were embedded in paraffin and cut into 5 μm-thick slices. […] They were rehydrated and stained with a solution of Sirius red (100 mg/100 ml of [COMPOUND LEFT OUT], rinsed in distilled water until clear, dehydrated and mounted in a resinous medium. The red stain (also called “Sirius red” stain) is one of the best understood histochemical techniques. It relies on the birefringent properties of collagen and is much more specific than the other common collagen stains, Pulmonary fibrosis was evaluated on a score of 0-4 on 15-20 different fields taken from each lung section, according to the area and intensity of fibrotic staining in the field, excluding that in blood vessels. […]

[2] = tested on: TGFβ; assay: TGFβ-containing cells in skin, bleomycin-induced skin sclerosis; format: in vivo, C57BL/6 mice; settings: ladostigil 10 mg/kg/day + bleomycin; p<0.05
Method: Male C57BL/6 mice aged 8 weeks were housed under pathogen-free conditions at a controlled temperature of 22-24° C., humidity and alternating 12-h light/dark cycles and provided with food and water ad libitum. Skin sclerosis was induced as described by Ravanetti et al, (2020). A small incision was made in the skin at the back caudal to the scapulae and subcutaneous pocket was created into which an Alzet micro-osmotic pump was implanted, and the incision closed with two stiches and a surgical clip. The pumps contained bleomycin, (delivered at the rate of 60 U/kg body weight) or saline (control) and were removed 10 days after implantation. The mice were monitored daily until they recovered completely and weighed twice weekly from the beginning of the experiment.
Ladostigil (10 mg/kg/day) was administered in the drinking fluid to 10 mice, housed 2/cage, from 3 days before bleomycin pump installation until the end of the experiment. The fluid intake of the mice was measured daily. The dose of ladostigil was adjusted accordingly. Bleomycin alone, (10 mice) and saline controls (6 mice) received regular drinking fluid.

[3] = tested on: IL6; assay: Secretion of IL6 from BzATP/LPS-activated microglia (ELISA); format: cell-based, Balb/C mice
Method: Experiments were performed on primary microglial cells isolated from brains of neonatal Balb/C mice as previously described (Reichert and Rotshenker, 2003). The brains were stripped of their meninges and enzymatically dissociated. Cells were plated on Poly-L-lysine coated flasks for one week, re-plated for 1- to 2-hr on bacteriological plates and non-adherent cells were washed away. Microglia were propagated by incubation in 20% of medium, conditioned by the L-cell line that produces mouse-CSF. They were identified by morphology and positive immune-reactivity to P2y12, F4/80, complement receptor-3 and Galectin-3/MAC-2 (Reichert and Rotshenker 2003; Gitik et al. 2011).
Cytokines were measured as previously described (Shamash et al. 2002) using ELISA Max deluxe set (Biolegend, CA, USA) for secreted TNFα and IL-6 proteins and ELISA DuoSet (R&D systems, UK) for secreted and cell associated IL-1β, according to manufacturer's instructions.
The effect of ladostigil at concentrations of 1×10^−13 M to 1×10^−9 M on the secretion of cytokine proteins was assessed by adding it to microglia for 2 hr before LPS (0.75 μg/ml) and BzATP (400 μM). Other microglia were treated similarly with the steroid, budesonide as a reference standard at concentrations of 1× 10^−13 to 1× 10^−11 M. Measurements of cytokine secretion were performed 8 hrs after addition of LPS and BzATP. Since the levels of secreted IL-1β were still low, samples were concentrated 2- to 4-fold by an Amicon ultra-centrifugal filter device (Merck-Millipore, Ireland). ELISA was used to quantify the levels of cytokine proteins. Protein content in the microglia lysate was measured by Bradford and levels of cytokines were calculated and presented as pg/μg of microglial protein.

C#CCN[C@@H]1CCc2ccc(OC(=O)N(C)CC)cc21 [Ladostigil, 6-(N-ethyl, N-methylcarbamyloxy)-N propargyl-1 (R)-aminoindan hemitartrate]
number of cells containing TGFβ in the lung [1]: significantly reduced the number of cells containing TGFβ | number of TGFβ-containing cells in the skin [2]: significantly reduced the number of TGFβ-containing cells | Emax ([3]; Mus musculus, Microglia, 8 h, 1×10^−11-1×10^−9 M, read-out: maximal reduction of IL6): ~50% | minimal effective concentration ([3]; Mus musculus, microglia, BzATP/LPS, medium containing BSA, 8 hrs, read-out: lowest concentration that significantly decreased IL6 secretion): 1e-07 µM | reduction of IL6 release ([3]; all concentrations tested, added 2 hrs before BzATP and LPS, 0.1% BSA, p<0.01): reduced the 3 cytokines significantly | reduction of IL6 compared with reduction of TNF ([3]; all concentrations tested, p<0.001): greater than those of TNF
